Each structure is given as a SMILES string.

Here are results for eleven compounds from ChEMBL document CHEMBL1201861, “Genomics of Drug Sensitity in Cancer screening data, Wellcome Trust Sanger Institute”.

Common to all, as to type: functional, cell-based
In assay [1] the test system is NCI-H128. As to the kind of experiment: SANGER: Inhibition of human NCI-H128 cell growth in a cell viability assay.
Assay [2] concerns RL95-2. Briefly: cells. To be noted: Homo sapiens.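 Note: RL95-2 growth inhibition determined through a cell viability readout.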
Description: SANGER: Inhibition of human RL95-2 cell growth in a cell viability assay.
The subject of assay [3] is EW-12. Briefly: SANGER: Inhibition of human EW-12 cell growth in a cell viability assay.
Assay [4] concerns NCI-H2107. Briefly: SANGER: Inhibition of human NCI-H2107 cell growth in a cell viability assay.
Assay [5] has as its system SKM-1. As to the kind of experiment: SANGER: Inhibition of human SKM-1 cell growth in a cell viability assay.
In assay [6] the test system is KP-N-RT-BM-1. As to the kind of experiment: SANGER: Inhibition of human KP-N-RT-BM-1 cell growth in a cell viability assay.
The test system of assay [7] is CP67-MEL. Briefly: SANGER: Inhibition of human CP67-MEL cell growth in a cell viability assay.
The test system of assay [8] is H-EMC-SS. As to the kind of experiment: cells. To be noted: Homo sapiens.
Description: SANGER: Inhibition of human H-EMC-SS cell growth in a cell viability assay.
Assay [9] deals with OC-314. As to the kind of experiment: cells. Conditions: Homo sapiens.
Description: SANGER: Inhibition of human OC-314 cell growth in a cell viability assay.
The test system of assay [10] is BALL-1. Briefly: cells. To be noted: Homo sapiens.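 Note: growth inhibition of BALL-1 cells, read out with a cell viability assay.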
Description: SANGER: Inhibition of human BALL-1 cell growth in a cell viability assay.
In assay [11] the test system is ZR-75-30. As to the kind of experiment: cells. Conditions: Homo sapiens.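 Note: growth inhibition of ZR-75-30 cells, measured with a cell viability readout.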
Description: SANGER: Inhibition of human ZR-75-30 cell growth in a cell viability assay.
Assay [12] concerns D-423MG. As to the kind of experiment: cells. Conditions: Homo sapiens.
Description: SANGER: Inhibition of human D-423MG cell growth in a cell viability assay.
The test system of assay [13] is TI-73. As to the kind of experiment: cells. To be noted: Homo sapiens.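 Note: cell viability assay measuring how much compounds suppress growth of the cultured cell line.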
Description: SANGER: Inhibition of human TI-73 cell growth in a cell viability assay.
In assay [14] the test system is A549. As to the kind of experiment: cells. To be noted: Homo sapiens.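 Note: growth inhibition of A549 cells, read out with a cell viability assay.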
Description: SANGER: Inhibition of human A549 cell growth in a cell viability assay.
For assay [15], the system named is D-566MG. Briefly: cells. To be noted: Homo sapiens.
Assay [16] has as its system ECC10. As to the kind of experiment: cells. To be noted: Homo sapiens.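 Note: growth inhibition of ECC10 cells, read out by a cell viability assay.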
Description: SANGER: Inhibition of human ECC10 cell growth in a cell viability assay.
The subject of assay [17] is TGBC11TKB. Briefly: cells. To be noted: Homo sapiens.
Description: SANGER: Inhibition of human TGBC11TKB cell growth in a cell viability assay.
For assay [18], the system named is NCI-H2291. Briefly: cells. To be noted: Homo sapiens.
Description: SANGER: Inhibition of human NCI-H2291 cell growth in a cell viability assay.
For assay [19], the system named is EPLC-272H. As to the kind of experiment: cells. Conditions: Homo sapiens.
Description: SANGER: Inhibition of human EPLC-272H cell growth in a cell viability assay.
For assay [20], the system named is NCI-H1048. Briefly: cells. To be noted: Homo sapiens.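 Note: growth inhibition of human NCI-H1048 cells, read out with a cell viability assay.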
Description: SANGER: Inhibition of human NCI-H1048 cell growth in a cell viability assay.
Assay [21] has as its system NCI-H2029. Briefly: cells. Conditions: Homo sapiens.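 Note: Read-out is a viability assay on the cultured cells, and IC50 is the concentration that suppresses cell growth.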
Description: SANGER: Inhibition of human NCI-H2029 cell growth in a cell viability assay.
The subject of assay [22] is H9. As to the kind of experiment: cells. Conditions: Homo sapiens.
Description: SANGER: Inhibition of human H9 cell growth in a cell viability assay.
Assay [23] deals with SW900. Briefly: cells. Conditions: Homo sapiens.
Description: SANGER: Inhibition of human SW900 cell growth in a cell viability assay.
For assay [24], the system named is NCI-H1975. Briefly: cells. To be noted: Homo sapiens.
Description: SANGER: Inhibition of human NCI-H1975 cell growth in a cell viability assay.
In assay [25] the test system is BT-549. Briefly: cells. Conditions: Homo sapiens.
Description: SANGER: Inhibition of human BT-549 cell growth in a cell viability assay.
Assay [26] relates to RH-18. Briefly: cells. Conditions: Homo sapiens, Rh18.
Description: SANGER: Inhibition of human RH-18 cell growth in a cell viability assay.
In assay [27] the test system is SW 1116. Briefly: cells. Conditions: Homo sapiens.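 Note: growth inhibition of SW1116 cells, read out with a cell viability assay.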
Description: SANGER: Inhibition of human SW1116 cell growth in a cell viability assay.
Assay [28] deals with NBsusSR. As to the kind of experiment: cells. To be noted: Homo sapiens.
Description: SANGER: Inhibition of human NBsusSR cell growth in a cell viability assay.
Assay [29] concerns CFPAC-1. Briefly: cells. To be noted: Homo sapiens.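 Note: cell viability readout used to gauge suppression of CFPAC-1 cell proliferation.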
Description: SANGER: Inhibition of human CFPAC-1 cell growth in a cell viability assay.
The test system of assay [30] is NCI-H1666. Briefly: cells. To be noted: Homo sapiens.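 Note: growth inhibition of the cell line, read out with a cell viability assay.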
Description: SANGER: Inhibition of human NCI-H1666 cell growth in a cell viability assay.
Assay [31] deals with YH-13. Briefly: cells. To be noted: Homo sapiens.
Description: SANGER: Inhibition of human YH-13 cell growth in a cell viability assay.
The subject of assay [32] is CHP-134. Briefly: SANGER: Inhibition of human CHP-134 cell growth in a cell viability assay.

As a reminder, the IC50 is the midpoint of a concentration-inhibition curve. Read a low IC50 as inhibition by little substance. For the compound `CCNc1cc(N[C@H]2CC[C@@H](O)CC2)nc(Nc2ccc3c(ccn3Cc3ccccc3)c2)n1`, the IC50 is over 5.12 µM in assay [1]; 3.2 µM in assay [2]; over 5.12 µM in [3]; over 5.12 µM in assay [4]; over 5.12 µM in [5]; over 5.12 µM in assay [6]. The compound further displayed an IC50 in assay [7] of over 5.12 µM.
Regarding `Cn1cc(/C=C2\C(=O)Nc3cccnc32)c2ccccc21`, the IC50 was 0.765 µM in assay [8]; over 2 µM in assay [9]; over 2 µM in [10]; over 2 µM in assay [11]; over 2 µM in assay [12]; over 2 µM in assay [13]. For the same compound, the IC50 in assay [14], in assay [15], in assay [16], in assay [17], in [18] and in [19] was over 2 µM throughout. In addition, the IC50 in assay [20], in [21], in [22], in [23], in assay [24] and in [25] was over 2 µM in each case. Besides, the IC50 in [26], in assay [27], in assay [28], in assay [29], in assay [30] and in [31] was over 2 µM throughout.
For `O=c1cc(N2CCOCC2)oc2c(-c3cccc4c3sc3ccccc34)cccc12`, the IC50 in [8] was over 2 µM; in assay [9], over 2 µM; in [10] it was over 2 µM; in assay [11] it was over 2 µM; in assay [12] it was 1.69 µM; in [13], over 2 µM. For the same compound, the IC50 in [14], in assay [32], in [15], in assay [17], in [18] and in assay [19] was over 2 µM in each case. The IC50 in [20], in [21], in [23], in assay [25], in [26] and in assay [27] was over 2 µM each time. Moreover, the IC50 in [28], in assay [29], in [30] and in assay [31] was over 2 µM in each case.
With `COc1cc(C)c(Sc2cnc(NC(=O)c3ccc(CNC(C)C(C)(C)C)cc3)s2)cc1C(=O)N1CCN(C(C)=O)CC1` (stereo not given), the IC50 was over 10.2 µM in [1]; 4.51 µM in assay [2]; over 10.2 µM in [3]; over 10.2 µM in assay [4]; over 10.2 µM in assay [5]; over 10.2 µM in [6]. The IC50 in assay [7] is over 10.2 µM.
Regarding `NC(=O)c1ncn([C@@H]2O[C@H](COP(=O)(O)O)[C@@H](O)[C@H]2O)c1N`, the IC50 is over 2000 µM in assay [10]; over 2000 µM in assay [11]; over 2000 µM in assay [12]; 724 µM in [13]; over 2000 µM in [14]; over 2000 µM in assay [15]. Further, the IC50 was over 2000 µM in assay [17]; over 2000 µM in [18]; 569 µM in assay [19]; over 2000 µM in assay [20]; over 2000 µM in assay [23]; 1070 µM in [24]. For the same compound, the IC50 in assay [25] was 807 µM; in assay [26] it was over 2000 µM; in assay [27], over 2000 µM; in [28], 474 µM; in [29], 1120 µM; in assay [30], over 2000 µM. The compound further showed an IC50 in assay [31] of over 2000 µM.
With `Cc1n[nH]c2ccc(-c3cncc(OC[C@@H](N)Cc4c[nH]c5ccccc45)c3)cc12` [A-443654], the IC50 in assay [1] is over 1.02 µM; in [2] it was 0.0228 µM; in assay [3] it was over 1.02 µM; in assay [4], 0.958 µM; in assay [5], over 1.02 µM; in assay [6], 0.911 µM. The compound also displayed an IC50 in [7] of 0.313 µM.
For `Cn1c(=O)n(-c2ccc(C(C)(C)C#N)cc2)c2c3cc(-c4cnc5ccccc5c4)ccc3ncc21` [DACTOLISIB], the IC50 was 0.147 µM in assay [8]; 0.0387 µM in [9]; over 2 µM in assay [10]; over 2 µM in assay [11]; 0.0521 µM in assay [12]; 0.0253 µM in assay [13]. Further, the IC50 in assay [14] was 0.0101 µM; in assay [32], 0.14 µM; in assay [15], 0.0177 µM; in [16] it was 0.032 µM; in [17], 0.41 µM; in assay [18], 0.598 µM. Besides, the IC50 turned out to be 0.0444 µM in assay [19]; 0.0863 µM in assay [20]; 1.42 µM in assay [21]; 0.155 µM in assay [23]; 0.119 µM in [25]; 0.395 µM in [26]. Besides, the IC50 in [27] is over 2 µM; in [28], 0.0246 µM; in assay [29] it was 0.151 µM; in [30] it was 0.00971 µM; in assay [31] it was 0.0219 µM.
Turning to `Cc1nc(Nc2ncc(C(=O)Nc3c(C)cccc3Cl)s2)cc(N2CCN(CCO)CC2)n1` [DASATINIB], the IC50 in assay [1] is over 1.28 µM; in assay [2], 0.104 µM; in [3] it was over 1.28 µM; in [4] it was over 1.28 µM; in assay [5], over 1.28 µM; in assay [6] it was over 1.28 µM. For the same compound, in assay [7], the IC50 was determined as 0.205 µM.
With `C[C@]12O[C@H](C[C@]1(O)CO)n1c3ccccc3c3c4c(c5c6ccccc6n2c5c31)CNC4=O` [LESTAURTINIB], the IC50 is 0.425 µM in assay [8]; 1.84 µM in assay [9]; over 2 µM in assay [10]; over 2 µM in [11]; 0.571 µM in [12]; 0.235 µM in assay [13]. For the same compound, the concentration for half-maximal inhibition (IC50) in [14] was determined as 0.194 µM; in assay [15] it was 0.0965 µM; in assay [16] it was 0.311 µM; in assay [17], 1.41 µM; in assay [18], 1.8 µM; in assay [19] it was 0.154 µM. Besides, the IC50 in assay [20] is 0.141 µM; in assay [21], over 2 µM; in [22], 0.0348 µM; in assay [23], 1.41 µM; in assay [24], 1.25 µM; in assay [25] it was 0.163 µM. The IC50 in assay [26] is over 2 µM; in [27], over 2 µM; in [28], 0.162 µM; in assay [29], over 2 µM; in assay [30], 1.89 µM; in [31] it was 0.135 µM.
In the case of `CC(=O)c1c(C)c2cnc(Nc3ccc(N4CCNCC4)cn3)nc2n(C2CCCC2)c1=O` [PALBOCICLIB], the IC50 in assay [8], in assay [9], in assay [10], in assay [11], in [12] and in [13] was over 4 µM each time. The IC50 is 1.29 µM in assay [14]; 1.12 µM in assay [32]; over 4 µM in assay [15]; 2.7 µM in assay [16]; over 4 µM in [17]; over 4 µM in assay [18]. Moreover, the IC50 in [19] is over 4 µM; in assay [20] it was over 4 µM; in assay [21], over 4 µM; in assay [22] it was 0.495 µM; in [25], over 4 µM; in assay [26], over 4 µM. The IC50 is over 4 µM in assay [27], 0.743 µM in assay [28], over 4 µM in [29] and 3.44 µM in assay [31].
As to `CCCS(=O)(=O)Nc1ccc(F)c(C(=O)c2c[nH]c3ncc(Cl)cc23)c1F` [PLX-4720], the IC50 in assay [8] was over 10 µM; in assay [9], over 10 µM; in assay [10], over 10 µM; in assay [11], over 10 µM; in assay [12] it was over 10 µM; in assay [13] it was 6.01 µM. The IC50 in assay [14], in assay [32], in assay [15], in assay [16], in [17] and in [18] was over 10 µM each time. Also, the IC50 in assay [19], in assay [20], in assay [21], in assay [23], in assay [25] and in [26] was over 10 µM in each case. In addition, the IC50 in assay [27], in assay [28], in assay [29], in assay [30] and in [31] was over 10 µM each time.
